Results on 27 compounds are retold here after ChEMBL document CHEMBL5233206, “An overview on the synthesis of carbohydrate-based molecules with biological activity related to neurodegenerative diseases” (RSC Med Chem, 2021).

Molecules are shown by their SMILES.

Series [1] deals with T1, Acetylcholinesterase (Homo sapiens, UniProt P22303).
Description: Binding affinity to AChE (unknown origin) assessed as inhibition constant incubated for 30 mins by ellman's method
In series [2] the target is T2, Cholinesterase (Homo sapiens, UniProt P06276).
Description: Binding affinity to BuChE (unknown origin) assessed as inhibition constant incubated for 30 mins by ellman's method
In series [3] the target is T3, Acetylcholinesterase (Electrophorus electricus, UniProt O42275).
T3 sequence (O42275 whole entry): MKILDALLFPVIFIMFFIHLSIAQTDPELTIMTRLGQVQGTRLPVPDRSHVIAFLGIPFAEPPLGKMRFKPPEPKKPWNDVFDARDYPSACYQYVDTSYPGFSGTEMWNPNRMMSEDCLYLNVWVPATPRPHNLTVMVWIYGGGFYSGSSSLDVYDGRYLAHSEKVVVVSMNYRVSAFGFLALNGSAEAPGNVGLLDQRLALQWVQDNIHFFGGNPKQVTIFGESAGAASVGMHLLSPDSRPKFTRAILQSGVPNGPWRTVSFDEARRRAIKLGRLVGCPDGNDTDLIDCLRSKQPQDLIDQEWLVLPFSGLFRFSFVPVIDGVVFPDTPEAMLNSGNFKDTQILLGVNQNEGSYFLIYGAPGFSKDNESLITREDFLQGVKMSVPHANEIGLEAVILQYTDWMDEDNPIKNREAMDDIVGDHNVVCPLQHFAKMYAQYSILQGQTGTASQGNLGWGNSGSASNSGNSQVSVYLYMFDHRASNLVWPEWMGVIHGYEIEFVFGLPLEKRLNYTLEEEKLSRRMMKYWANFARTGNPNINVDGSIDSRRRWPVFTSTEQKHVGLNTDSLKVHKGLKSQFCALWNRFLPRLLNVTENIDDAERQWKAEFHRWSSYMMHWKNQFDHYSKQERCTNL
Description: Binding affinity to electrical eel AChE assessed as inhibition constant incubated for 20 mins by absorbance based analysis
Series [4] concerns the target T2, Cholinesterase. The source holds these as a separate data set.
Series [5] deals with T4, Cholinesterase (Equus caballus, UniProt P81908). Put plainly: Binding affinity to horse serum BuChE using ATCh-iodide as substrate by ellman's method.
T4 sequence (P81908 whole entry): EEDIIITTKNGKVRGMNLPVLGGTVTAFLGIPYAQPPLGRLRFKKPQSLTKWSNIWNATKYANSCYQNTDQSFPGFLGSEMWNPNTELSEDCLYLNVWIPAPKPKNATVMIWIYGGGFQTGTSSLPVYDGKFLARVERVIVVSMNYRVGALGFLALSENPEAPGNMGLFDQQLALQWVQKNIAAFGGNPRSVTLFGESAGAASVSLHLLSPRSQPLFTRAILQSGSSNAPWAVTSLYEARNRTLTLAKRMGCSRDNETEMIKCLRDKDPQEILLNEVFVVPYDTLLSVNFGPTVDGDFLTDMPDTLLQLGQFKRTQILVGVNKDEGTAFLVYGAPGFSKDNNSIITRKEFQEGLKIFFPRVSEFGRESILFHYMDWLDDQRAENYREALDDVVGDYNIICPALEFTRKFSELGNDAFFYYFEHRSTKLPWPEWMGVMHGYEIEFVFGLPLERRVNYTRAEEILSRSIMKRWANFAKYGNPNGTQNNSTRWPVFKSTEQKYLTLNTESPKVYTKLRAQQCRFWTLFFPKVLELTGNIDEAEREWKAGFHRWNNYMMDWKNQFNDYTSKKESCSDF
Series [6] concerns the target T1, Acetylcholinesterase. Put plainly: Inhibition of AChE (unknown origin).
The target in series [7] is T4, Cholinesterase.
Description: Inhibition of equine serum BuChE by ellman's method
Series [8] addresses T3, Acetylcholinesterase. Put plainly: Inhibition of electrical eel AChE by ellman's method. In general terms: In Ellman's method for cholinesterases, released thiocholine reacts with DTNB.
A short description of series [9]: Lipophilicity, logP of the compound. Type of series: physicochemical. The note with it: octanol/water.
The target of series [10] is T1, Acetylcholinesterase. Put plainly: Inhibition of AChE (unknown origin) at 50 uM incubated for 20 mins by absorbance based analysis relative to control.
For series [11], the target named is T2, Cholinesterase. Put plainly: Binding affinity to BuChE (unknown origin) assessed as inhibition constant incubated for 20 mins by absorbance based analysis.
Series [12] addresses T2, Cholinesterase. Put plainly: Inhibition of BuChE (unknown origin) at 50 uM incubated for 20 mins by absorbance based analysis relative to control.
Series [13] addresses T2, Cholinesterase. Put plainly: Binding affinity to BuChE (unknown origin) assessed as inhibition constant by ellman's method.
The species named for a further series is Homo sapiens. Put plainly: Selectivity ratio of IC50 for AChE (unknown origin) to IC50 for BuChE (unknown origin).
Series [14] in a line: Antioxidant activity assessed as ABTS radical scavenging activity. The class given is functional.

T2 sequence (P06276 whole entry): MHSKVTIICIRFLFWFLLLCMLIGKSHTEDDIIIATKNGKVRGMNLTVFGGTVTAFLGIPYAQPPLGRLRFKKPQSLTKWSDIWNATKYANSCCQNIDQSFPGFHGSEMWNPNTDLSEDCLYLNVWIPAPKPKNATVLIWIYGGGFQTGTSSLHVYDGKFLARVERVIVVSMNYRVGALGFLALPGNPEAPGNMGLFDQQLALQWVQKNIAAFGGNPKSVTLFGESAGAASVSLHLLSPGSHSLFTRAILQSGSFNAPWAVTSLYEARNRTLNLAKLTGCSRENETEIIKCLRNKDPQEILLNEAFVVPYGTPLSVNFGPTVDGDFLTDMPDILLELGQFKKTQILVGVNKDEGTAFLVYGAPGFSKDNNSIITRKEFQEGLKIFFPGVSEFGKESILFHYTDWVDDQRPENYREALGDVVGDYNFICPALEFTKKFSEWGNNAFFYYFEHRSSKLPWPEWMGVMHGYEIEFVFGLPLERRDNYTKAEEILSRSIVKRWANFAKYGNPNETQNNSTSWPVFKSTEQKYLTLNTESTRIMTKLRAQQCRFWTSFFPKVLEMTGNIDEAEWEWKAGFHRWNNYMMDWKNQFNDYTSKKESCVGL
T1 sequence (P22303 whole entry): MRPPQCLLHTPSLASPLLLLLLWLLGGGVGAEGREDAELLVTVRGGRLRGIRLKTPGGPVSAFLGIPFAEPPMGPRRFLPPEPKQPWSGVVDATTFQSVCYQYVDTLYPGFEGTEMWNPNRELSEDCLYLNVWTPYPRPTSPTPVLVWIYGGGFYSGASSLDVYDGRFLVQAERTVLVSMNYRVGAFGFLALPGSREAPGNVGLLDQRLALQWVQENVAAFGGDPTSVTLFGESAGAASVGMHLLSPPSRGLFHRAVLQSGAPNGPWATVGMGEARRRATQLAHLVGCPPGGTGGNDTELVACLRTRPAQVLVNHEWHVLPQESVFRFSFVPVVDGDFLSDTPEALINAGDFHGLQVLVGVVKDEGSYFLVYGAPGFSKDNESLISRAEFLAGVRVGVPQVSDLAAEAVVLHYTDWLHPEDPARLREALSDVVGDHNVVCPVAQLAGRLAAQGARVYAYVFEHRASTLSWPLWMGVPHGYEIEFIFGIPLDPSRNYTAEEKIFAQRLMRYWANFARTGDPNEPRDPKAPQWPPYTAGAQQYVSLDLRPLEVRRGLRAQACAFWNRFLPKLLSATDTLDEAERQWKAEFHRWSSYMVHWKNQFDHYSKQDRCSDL

In the case of `CC(=O)Nc1nc(Cl)c2ncn(C3O[C@H](C(=O)NCc4ccccc4)[C@@H](OC(C)=O)[C@@H](OC(C)=O)[C@H]3OC(C)=O)c2n1` (stereo partly specified), the Ki – broadly, a measure of affinity in units of concentration, obtained from inhibition or displacement – was 31 µM on Acetylcholinesterase [1] and above 100 µM on Cholinesterase [2]. Consider `CC(=O)Nc1nc(Cl)c2ncn(C3O[C@H](CC(=O)NCc4ccccc4)[C@H](OC(C)=O)[C@H]3OC(C)=O)c2n1` (stereo partly specified), for which the Ki on Acetylcholinesterase [1] is 14.8 µM; on Cholinesterase [2] it was above 100 µM. As for `CC(=O)Nc1nc(NCc2ccccc2)c2ncn(C3O[C@H](CC(=O)NCc4ccccc4)[C@H](OC(C)=O)[C@H]3OC(C)=O)c2n1` (stereo partly specified), the results for the inhibitory constant (Ki) on Acetylcholinesterase [1] and on Cholinesterase [2] were 50.5 µM and above 100 µM, respectively. The matching figures for `CC(=O)Nc1nc(Cl)c2c(ncn2C2O[C@H](C(=O)O)[C@@H](OC(C)=O)[C@@H](OC(C)=O)[C@H]2OC(C)=O)n1` (stereo partly specified): 37.9 µM and above 100 µM. Take `CO[C@H]1O[C@H](Cn2cnc3c(Cl)nc(NC(C)=O)nc32)[C@@H](OCc2ccccc2)[C@H](OCc2ccccc2)[C@H]1OCc1ccccc1`: the Ki was 7.1 µM on Acetylcholinesterase [3] and below 100 µM at Cholinesterase [4].

For the compound `OC[C@H]1O[C@@H](OCCN2CN(Cc3ccccc3)c3ccccc32)[C@H](O)[C@@H](O)[C@H]1O`, the Ki on Cholinesterase [5] came to 26 µM.

With `CC1=C(CO[C@@H]2O[C@H](CO[C@@H]3O[C@H](CO)[C@@H](O)[C@H](O)[C@H]3O)[C@@H](O)[C@H](O)[C@H]2O)C(C)(C)CCC1`, at Acetylcholinesterase [6], half-maximal inhibition (IC50) was put at 3.2 µM. On to `COC1O[C@H](Cn2ccc(=O)n(C[C@H]3O[C@H](OC)[C@H](O)[C@@H](O)[C@@H]3O)c2=O)[C@@H](O)[C@H](O)[C@H]1O` (stereo partly specified), for which the inhibition constant Ki on Acetylcholinesterase [3] was 22.9 µM; on Cholinesterase [4], below 100 µM. With `CC(=O)Nc1nc(Cl)c2ncn(C3O[C@H](C(=O)O)[C@@H](OC(C)=O)[C@@H](OC(C)=O)[C@H]3OC(C)=O)c2n1` (stereo partly specified), the Ki is 26.9 µM on Acetylcholinesterase [1] and above 100 µM at Cholinesterase [2]. In the case of `COc1cc([C@@H](O)[C@H](CO[C@@H]2O[C@H](CO)[C@@H](O)[C@H](O)[C@H]2O)Oc2ccc(CCCO)cc2OC)ccc1O`, on Acetylcholinesterase [6], half-maximal inhibition (IC50) was put at 0.75 µM. Regarding `O=c1c2ccccc2n(CCCCCCn2cc(CO[C@@H]3O[C@H](CO)[C@@H](O)[C@H](O)[C@H]3O)nn2)c2ccccc12`, the figures for the IC50 against Cholinesterase [7] and against Acetylcholinesterase [8] were 29.3 µM and 38.2 µM, respectively. Further, the logP (in general, the decadic logarithm of the partition coefficient of the neutral form, usually between octanol and water) in series [9] came out at 2.14. For `COC1O[C@H](Cn2ccc(=O)n(C[C@H]3O[C@H](OC)[C@H](OCc4ccccc4)[C@@H](OCc4ccccc4)[C@@H]3OCc3ccccc3)c2=O)[C@@H](OCc2ccccc2)[C@H](OCc2ccccc2)[C@H]1OCc1ccccc1` (stereo partly specified), the inhibitory constant (Ki) on Acetylcholinesterase [3] is 4.2 µM; at Cholinesterase [4] it was 4 µM.

Turning to `COc1ccc2c(c1)c(=O)c1ccccc1n2CCCCCCn1cc(CO[C@@H]2O[C@H](CO)[C@H](O)[C@H](O)[C@H]2O)nn1`, the results for the IC50 against Cholinesterase [7] and on Acetylcholinesterase [8] were 65.6 µM and 44.7 µM, respectively. The compound `COC1O[C@H](Cn2ccc(=O)[nH]c2=O)[C@@H](OCc2ccccc2)[C@H](OCc2ccccc2)[C@H]1OCc1ccccc1` (stereo partly specified) returned a Ki at Cholinesterase [4] below 100 µM. On to `CCCCCCCCO[C@H]1[C@H](OC(C)=O)[C@@H](Cn2c(=O)c3c(ncn3C)n(C)c2=O)OC(OC(C)=O)[C@@H]1OC(C)=O` (stereo partly specified), for which the inhibition (commonly how much of the control response was suppressed) on Acetylcholinesterase [10] stood at 66.5%; against Cholinesterase [12] it was 75.1%. Also, the inhibitory constant (Ki) on Cholinesterase [11] was determined as 5.4 µM.

At Cholinesterase [5], `OC[C@H]1O[C@@H](OCCN2CN(Cc3ccccc3)c3ccccc32)[C@H](O)[C@@H](O)[C@@H]1O` showed a Ki of 52 µM.

For the compound `CC(=O)Nc1nc(Cl)c2ncn(C3O[C@H]4[C@H](OC(=O)[C@@H]4O)[C@H]3OC(C)=O)c2n1` (stereo partly specified), the values for the inhibition constant (Ki) on Acetylcholinesterase [1] and at Cholinesterase [2] were 23.7 µM and above 100 µM, respectively. Consider `CC(=O)Nc1nc(Cl)c2c(ncn2[C@H]2O[C@H](COCc3ccccc3)[C@@H](OCc3ccccc3)[C@H](OCc3ccccc3)[C@@H]2OCc2ccccc2)n1`, for which the affinity on Cholinesterase [2] corresponds to a Ki of 0.05 µM. Turning to `CCCCCCCCO[C@H]1[C@H](OC(C)=O)[C@@H](Cn2c(=O)c3c(ncn3C)n(C)c2=O)OC(NS(C)(=O)=O)[C@@H]1OC(C)=O` (stereo partly specified), the inhibition against Acetylcholinesterase [10] stood at 28.3%; against Cholinesterase [12] it was 52.6%. `O=c1c2ccccc2n(CCCCCCn2cc(CO[C@@H]3O[C@H](CO)[C@@H](O)[C@H]3O)nn2)c2ccccc12`: at Cholinesterase [13], the Ki stood at 1.76 µM. Moreover, the IC50 – broadly, the concentration that gives 50% inhibition – amounted to 6.95 µM against Cholinesterase [7] and 143 µM against Acetylcholinesterase [8]. The compound further yielded a logP in series [9] of 2.68. Moreover, the Ratio IC50 in the series listed under Homo sapiens stood at 20.6. Consider `CO[C@H]1O[C@H](Cn2c(=O)c3c(ncn3C)n(C)c2=O)[C@@H](OC(C)=O)[C@H](OC(C)=O)[C@H]1OC(C)=O`, for which the Ki came to 4.3 µM at Acetylcholinesterase [3] and 4 µM on Cholinesterase [4].

In the case of `CC(=O)Nc1nc(Cl)c2c(ncn2C2O[C@H](C(=O)NCc3ccccc3)[C@@H](OC(C)=O)[C@@H](OC(C)=O)[C@H]2OC(C)=O)n1` (stereo partly specified), the figures for the inhibition constant Ki on Acetylcholinesterase [1] and on Cholinesterase [2] were 18.7 µM and above 100 µM, respectively. Consider `COc1ccc2c(c1)c(=O)c1ccccc1n2CCCCCCn1cc(CO[C@@H]2O[C@H](CO)[C@@H](O)[C@H](O)[C@H]2O)nn1`, for which the concentration for half-maximal inhibition (IC50) against Cholinesterase [7] was found to be 82.3 µM; against Acetylcholinesterase [8] it was 56.1 µM. In [9], this compound came in with a log partition coefficient (logP) of 2.14. At Acetylcholinesterase [6], `COc1cc(CO)ccc1O[C@@H]1O[C@H](CO)[C@@H](O)[C@H](O)[C@H]1O` [VANILLOLOSIDE] showed an IC50 of 4.55 µM. In the case of `COc1ccc2c(c1)c(=O)c1ccccc1n2CCCCCCn1cc(CO[C@@H]2O[C@H](CO)[C@@H](O)[C@H]2O)nn1`, the IC50 on Cholinesterase [7] stood at 35.1 µM; on Acetylcholinesterase [8], 81.8 µM. At Cholinesterase [5], `OC[C@H]1O[C@@H](OCCn2cnc3ccccc32)[C@H](O)[C@@H](O)[C@H]1O` returned a Ki of 782 µM. Take `CCCCCCCC[Se]C[C@H]1OC(OC)[C@H](O)[C@H]1O` (stereo partly specified): the IC50 in series [14] turned out to be 210 µM.
